# Reference: PMC3411725 (PLoS ONE, 2012)
# T1: AroAE.coli (Escherichia coli, UniProt P0A6D3)
# T1 construct: gene aroA; overexpressed and purified as P1 (pET-28a, His-tag, E. coli BL21(DE3), HisTrap)
# T1 sequence (P0A6D3 1-427): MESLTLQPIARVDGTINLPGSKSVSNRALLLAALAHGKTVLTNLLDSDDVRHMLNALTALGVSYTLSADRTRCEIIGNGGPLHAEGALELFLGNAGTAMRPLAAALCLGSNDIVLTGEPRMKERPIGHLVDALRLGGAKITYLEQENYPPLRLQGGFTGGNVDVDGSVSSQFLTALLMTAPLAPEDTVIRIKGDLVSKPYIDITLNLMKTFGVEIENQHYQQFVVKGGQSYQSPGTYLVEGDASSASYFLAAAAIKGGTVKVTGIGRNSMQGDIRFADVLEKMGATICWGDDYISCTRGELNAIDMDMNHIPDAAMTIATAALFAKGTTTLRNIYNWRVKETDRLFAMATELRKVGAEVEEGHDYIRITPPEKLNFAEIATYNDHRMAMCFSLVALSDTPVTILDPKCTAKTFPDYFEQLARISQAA
# Columns and labels:
# AroAE.coli [1] = target: T2, AroAE.coli (Escherichia coli, UniProt P0A6D3, G96A); experiment: biochemical
# T2 construct: gene aroA
# AroAE.coli [2] = target: T1, AroAE.coli; experiment: malachite green phosphate release assay, dose-response fit; type: biochemical; settings: read-out: IC50 [glyphosate] ^e
# AroAE.coli [3] = target: T1, AroAE.coli; experiment: malachite green phosphate release assay, Lineweaver-Burk; type: biochemical; settings: read-out: K i [glyphosate] ^d
# AroAE.coli [4] = target: T2, AroAE.coli; experiment: biochemical; remark: listed apart in the source
# [5] = substrate: C=C(OP(=O)(O)O)C(=O)O; experiment: malachite green phosphate release assay, Lineweaver-Burk; type: biochemical, Escherichia coli; settings: 1 mM S3P, 50 mM HEPES pH 7.0, 28°C
Molecule,IC50 (AroAE.coli [1]) [µM],IC50 (AroAE.coli [2]) [µM],Ki (AroAE.coli [3]) [µM],Ki (AroAE.coli [4]) [µM],Km [5] [µM]
O=C(O)CNCP(=O)(O)O [glyphosate],220 ± 20,50 ± 10,1.4 ± 0.1,219.3 ± 1.9,–
"AroAE.coli (Escherichia coli K-12) (protein, overexpressed and purified as P1 (pET-28a, His-tag, E. coli BL21(DE3), HisTrap)) MESLTLQPIARVDGTINLPGSKSVSNRALLLAALAHGKTVLTNLLDSDDVRHMLNALTALGVSYTLSADRTRCEIIGNGGPLHAEGALELFLGNAGTAMRPLAAALCLGSNDIVLTGEPRMKERPIGHLVDALRLGGAKITYLEQENYPPLRLQGGFTGGNVDVDGSVSSQFLTALLMTAPLAPEDTVIRIKGDLVSKPYIDITLNLMKTFGVEIENQHYQQFVVKGGQSYQSPGTYLVEGDASSASYFLAAAAIKGGTVKVTGIGRNSMQGDIRFADVLEKMGATICWGDDYISCTRGELNAIDMDMNHIPDAAMTIATAALFAKGTTTLRNIYNWRVKETDRLFAMATELRKVGAEVEEGHDYIRITPPEKLNFAEIATYNDHRMAMCFSLVALSDTPVTILDPKCTAKTFPDYFEQLARISQAA",–,–,–,–,65.8 ± 5.6
